Data reported in the supplement of paper PMC10627819.

Experiments:
[1] = tested on: S. aureus DSM 20231; assay: Bliss interaction score (quartile over a dose matrix) (fitness difference); higher = more antagonism (negative = synergy)
Procedure, shortened: (§1)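 Fitness was defined as normalised growth: OD595 at the start of stationary phase divided by the plate's robust no-drug mean and capped at 1. Single-drug fitness was inferred from combination measurements. The Bliss score is observed fitness minus the product of the single-drug values, summarised by quartiles across technical, biological and donor/recipient replicates.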

[2] = tested on: S. aureus Newman; assay: as above
Procedure, shortened: as §1

[3] = tested on: S. pneumoniae D39V; assay: as above
Procedure, shortened: as §1

[4] = tested on: B. subtilis 168; assay: as above
Procedure, shortened: as §1

[5] = tested on: S. aureus Newman; assay: fitness (endpoint OD595 vs no drug) (fraction); higher = more growth
Procedure, shortened: (§2)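 Bacterial fitness was scored as optical density at the stationary-phase transition relative to the robust mean of no-drug control wells. Scores are capped at 1. The growth data were OD595 readings every 30 min for 14 h at 37 °C, background-subtracted against the first reading, from 384-well plates inoculated at OD595 0.01 in TSB, LB Lennox or CY.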

[6] = tested on: S. pneumoniae D39V; assay: as above
Procedure, shortened: as §2

[7] = tested on: B. subtilis 168; assay: as above
Procedure, shortened: as §2

[8] = tested on: S. aureus DSM 20231; assay: as above
Procedure, shortened: as §2

[9] = first compound 4 µg/mL, partner 2 µg/mL
[10] = first compound 8 µg/mL, partner 2 µg/mL
[11] = first compound 4 µg/mL, partner 8 µg/mL
[12] = first compound 8 µg/mL, partner 4 µg/mL
[13] = first compound 8 µg/mL, partner 8 µg/mL
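Wherever Bliss interaction score (quartile over a dose matrix) is given: first quartile when negative (synergy) and third quartile when positive (antagonism).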
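Wherever fitness (endpoint OD595 vs no drug) is given: OD595 on entry to stationary phase over no-drug wells; at most 1.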

CN[C@@H]1[C@H](O)[C@H](NC)[C@H]2O[C@@]3(O)C(=O)C[C@@H](C)O[C@H]3O[C@@H]2[C@H]1O [Spectinomycin] + CN[C@@H]1[C@H](O[C@H]2[C@H](O[C@H]3[C@H](O)[C@@H](O)[C@H](N=C(N)N)[C@@H](O)[C@@H]3N=C(N)N)O[C@@H](C)[C@]2(O)C=O)O[C@@H](CO)[C@H](O)[C@H]1O [Streptomycin]
Bliss interaction score [1]: 0.126 | Bliss interaction score [2]: 0.0625 | Bliss interaction score [3]: 0.0931 | Bliss interaction score [4]: 0.0835 | fitness ([5]; first compound 4 µg/mL, partner 1 µg/mL): 0.956 | fitness [5, 9]: 0.926 | fitness ([5]; first compound 8 µg/mL, partner 1 µg/mL): 0.943 | fitness [5, 10]: 0.975 | fitness ([5]; first compound 16 µg/mL, partner 1 µg/mL): 0.906 | fitness ([5]; first compound 16 µg/mL, partner 8 µg/mL, one replicate): 0.0211 | fitness ([5]; first compound 32 µg/mL, partner 2 µg/mL, one replicate): 0.455 | fitness ([5]; first compound 32 µg/mL, partner 4 µg/mL, one replicate): 0.342 | fitness ([5]; first compound 32 µg/mL, partner 8 µg/mL, one replicate): 0.0569 | fitness ([5]; first compound 64 µg/mL, partner 2 µg/mL, one replicate): 0.0619 | fitness ([5]; first compound 64 µg/mL, partner 4 µg/mL, one replicate): 0.0473 | fitness ([5]; first compound 64 µg/mL, partner 8 µg/mL, one replicate): 0.0327 | fitness [6, 9]: 0.946 | fitness ([6]; first compound 4 µg/mL, partner 4 µg/mL): 0.952 | fitness [6, 11]: 0.921 | fitness ([6]; first compound 4 µg/mL, partner 16 µg/mL, one replicate): 0.882 | fitness [6, 10]: 0.89 | fitness [6, 12]: 0.878 | fitness [6, 13]: 0.89 | fitness ([6]; first compound 8 µg/mL, partner 16 µg/mL, one replicate): 0.842 | fitness ([6]; first compound 16 µg/mL, partner 2 µg/mL, one replicate): 0.84 | fitness ([6]; first compound 16 µg/mL, partner 4 µg/mL): 0.83 | fitness ([6]; first compound 16 µg/mL, partner 8 µg/mL): 0.822 | fitness ([6]; first compound 16 µg/mL, partner 16 µg/mL, one replicate): 0.705 | fitness ([7]; first compound 2 µg/mL, partner 2 µg/mL): 0.928 | fitness ([7]; first compound 2 µg/mL, partner 8 µg/mL): 0.148 | fitness [7, 9]: 0.973 | fitness [7, 11]: 0.0533 | fitness [7, 10]: 0.894 | fitness [7, 12]: 0.623 | fitness [7, 13]: 0.0588

CC(=O)NC[C@H]1CN(c2ccc(N3CCOCC3)c(F)c2)C(=O)O1 [Linezolid] + Cn1nnc(-c2ccc(-c3ccc(N4C[C@H](CO)OC4=O)cc3F)cn2)n1 [Tedizolid]
Bliss interaction score [1]: -0.185 | Bliss interaction score [2]: -0.153 | Bliss interaction score [3]: -0.148 | Bliss interaction score [4]: -0.188 | fitness ([8]; first compound 0.125 µg/mL, partner 0.0625 µg/mL): 0.689 | fitness ([8]; first compound 0.125 µg/mL, partner 0.125 µg/mL): 0.501 | fitness ([8]; first compound 0.125 µg/mL, partner 0.25 µg/mL): 0.257 | fitness ([8]; first compound 0.25 µg/mL, partner 0.0625 µg/mL): 0.456 | fitness ([8]; first compound 0.25 µg/mL, partner 0.125 µg/mL): 0.26 | fitness ([8]; first compound 0.25 µg/mL, partner 0.25 µg/mL): 0.141 | fitness ([8]; first compound 0.5 µg/mL, partner 0.0625 µg/mL): 0.119 | fitness ([8]; first compound 0.5 µg/mL, partner 0.125 µg/mL): 0.0888 | fitness ([8]; first compound 0.5 µg/mL, partner 0.25 µg/mL): 0.0646 | fitness ([8]; first compound 1 µg/mL, partner 0.0625 µg/mL, one replicate): 0.0257 | fitness ([8]; first compound 1 µg/mL, partner 0.125 µg/mL, one replicate): 0.0309 | fitness ([8]; first compound 1 µg/mL, partner 0.25 µg/mL, one replicate): 0.0295 | fitness ([6]; first compound 0.105 µg/mL, partner 0.125 µg/mL): 0.682 | fitness ([6]; first compound 0.105 µg/mL, partner 0.25 µg/mL): 0.441 | fitness ([6]; first compound 0.105 µg/mL, partner 0.5 µg/mL): 0.141 | fitness ([6]; first compound 0.2 µg/mL, partner 0.03125 µg/mL): 0.819 | fitness ([6]; first compound 0.2 µg/mL, partner 0.0625 µg/mL): 0.825 | fitness ([6]; first compound 0.2 µg/mL, partner 0.125 µg/mL): 0.723 | fitness ([6]; first compound 0.21 µg/mL, partner 0.125 µg/mL): 0.58 | fitness ([6]; first compound 0.21 µg/mL, partner 0.25 µg/mL): 0.286 | fitness ([6]; first compound 0.21 µg/mL, partner 0.5 µg/mL): 0.0818 | fitness ([6]; first compound 0.4 µg/mL, partner 0.03125 µg/mL): 0.73 | fitness ([6]; first compound 0.4 µg/mL, partner 0.0625 µg/mL): 0.724 | fitness ([6]; first compound 0.4 µg/mL, partner 0.125 µg/mL): 0.633 | fitness ([6]; first compound 0.42 µg/mL, partner 0.125 µg/mL): 0.249 | fitness ([6]; first compound 0.42 µg/mL, partner 0.25 µg/mL): 0.107 | fitness ([6]; first compound 0.42 µg/mL, partner 0.5 µg/mL): 0.0451 | fitness ([6]; first compound 0.8 µg/mL, partner 0.03125 µg/mL): 0.549 | fitness ([6]; first compound 0.8 µg/mL, partner 0.0625 µg/mL): 0.578 | fitness ([6]; first compound 0.8 µg/mL, partner 0.125 µg/mL): 0.465
